Source: patent US8927715B2, “Inhibitors of 11β-hydroxysteroid dehydrogenase type 1” (Vitae Pharmaceuticals, Inc., priority 2006, dated 2015)

Assays:
human 11β-HSD1 [1] = molecular target: T1, human 11β-HSD1 (Homo sapiens, UniProt P28845); assay: Scintillation Proximity Assay: inhibition of purified 11β-HSD1 (Biological Test Example 1); type: biochemical; set-up: made in house; host or cells: E. coli; conditions: purified recombinant 11β-HSD1, SPA; read-out: Biological Test Example 1 (IC50 class)
Description: The inhibition of purified 11β-HSD1 by compounds of Formula I or I* is measured using a Scintillation Proximity Assay. All reactions are carried out at room temperature in 96 well flexible Microbeta reaction plates. First, 1 μL of a 0.1 mM solution of a compound of Formula I or I* is mixed in DMSO diluted in half-log increments (8 points) starting at 1 μM final concentration. To this dot is added 50 μL of substrate solution (50 mM HEPES, pH 7.4, 100 mM KCl, 5 mM NaCl, 2 mM MgCl2 containing 20 μM ^3H cortisone, 1 mM NADPH). […] The reaction is then incubated for 90 minutes, and stopped by adding 50 μl of SPA bead mix (18-β-glycyrrhetinic acid, 10 μM final, 5 mg/ml protein A coated YSi SPA beads, and 1 μg/ml α-cortisol antibody (East Coast Biologics)). The plate is shaken for 120 minutes, and the radioactivity corresponding to ^3H cortisol is measured on a Wallac Microbeta.
Target sequence in this assay (P28845 whole entry, species assumed): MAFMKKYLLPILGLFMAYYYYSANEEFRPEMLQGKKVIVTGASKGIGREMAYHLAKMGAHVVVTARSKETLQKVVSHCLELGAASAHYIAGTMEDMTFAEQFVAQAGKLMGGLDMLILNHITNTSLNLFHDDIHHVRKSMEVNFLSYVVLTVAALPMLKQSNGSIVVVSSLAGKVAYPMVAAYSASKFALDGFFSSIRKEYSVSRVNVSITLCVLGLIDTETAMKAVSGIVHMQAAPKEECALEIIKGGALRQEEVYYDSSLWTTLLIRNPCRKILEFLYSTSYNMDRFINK

human 11β-HSD1 [2] = molecular target: T1, human 11β-HSD1; assay: Inhibition of a microsomal preparation of 11β-HSD1, SPA (Biological Test Example 2); type: biochemical; set-up: expressed in transfected cells; host or cells: CHO cells (microsomes); conditions: read-out: Biological Test Example 2 (IC50 class)
How it was run: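 Microsomes from CHO cells overexpressing human 11β-HSD1 (10-20 μg/ml total protein) added after 10 min compound pre-incubation, then 90 min at room temperature. Stopped with 18β-glycyrrhetinic acid (10 nM), protein A SPA beads and anti-cortisol antibody; [3H]cortisol measured by SPA after 120 min.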
Target sequence in this assay (P28845 whole entry): as the sequence (P28845 whole entry, species assumed) above

IC50 (human 11β-HSD1 [1])	IC50 (human 11β-HSD1 [2])	Molecule
< 50 nM	–	CNC(=O)CC1CC2(CCN(C(=O)OC3C4CC5CC(C4)CC3C5)CC2)c2ccccc21 (racemic) [Example 26, (±)-2-Adamantyl 3-(2-(methylamino)-2-oxoethyl)-2,3-dihydrospiro[indene-1,4′-piperidine]-1′-carboxylate]
< 50 nM	–	CC(C)(C)OC(=O)N1CC2(CCN(C(=O)NC3C4CC5CC(C4)CC3C5)CC2)c2ccccc21 (stereo not drawn) [Example 1, Tert-butyl 1′-((2-adamantyl)carbamoyl)spiro[indoline-3,4′-piperidine]-1-carboxylate]
< 50 nM	–	O=C(NC1C2CC3CC(C2)CC1C3)N1CCC2(CC1)CNc1ccccc12 (stereo not drawn) [Example 2, N-(2-Adamantyl)spiro[indoline-3,4′-piperidine]-1′-carboxamide]
< 50 nM	–	CC(=O)N1CC2(CCN(C(=O)NC3C4CC5CC(C4)CC3C5)CC2)c2ccccc21 (stereo not drawn) [Example 7, 1-Acetyl-N-(2-adamantyl)spiro[indoline-3,4′-piperidine]-1′-carboxamide]
50 to 1000 nM	–	CC(C)(C)OC(=O)N1CCC2(CCN(C(=O)NC3C4CC5CC(C4)CC3C5)CC2)CC1 (stereo not drawn) [Example 8]
50 to 1000 nM	–	CC(C)(C)OC(=O)N1CCC2(CCN(C(=O)NC3C4CC5CC(C4)CC3C5)CC2)C1 (stereo not drawn) [Example 9, tert-Butyl 8-((2-adamantyl)carbamoyl)-2,8-diazaspiro[4.5]decane-2-carboxylate]
< 50 nM	–	O=C(O)C1=CC2(CCN(C(=O)NC3C4CC5CC(C4)CC3C5)CC2)c2ccccc21 (stereo not drawn) [Example 11, 1′-((2-Adamantyl)carbamoyl)spiro[indene-1,4′-piperidine]-3-carboxylic acid]
< 50 nM	–	CCOC(=O)C1=CC2(CCN(C(=O)NC3C4CC5CC(C4)CC3C5)CC2)c2ccccc21 (stereo not drawn) [Example 15, Ethyl 1′-((2-adamantyl)carbamoyl)spiro[indene-1,4′-piperidine]-3-carboxylate]
< 50 nM	–	CS(=O)(=O)N1CC2(CCN(C(=O)NC3C4CC5CC(C4)CC3C5)CC2)c2ccccc21 (stereo not drawn) [Example 19, N-(2-Adamantyl)-1-(methylsulfonyl)spiro[indoline-3,4′-piperidine]-1′-carboxamide]
< 50 nM	–	O=C(OC1C2CC3CC(C2)CC1C3)N1CCC2(CC1)CNc1ccccc12 (stereo not drawn) [Example 20, 2-Adamantyl spiro[indoline-3,4′-piperidine]-1′-carboxylate]
< 50 nM	–	O=C(OC1C2CC3CC(C2)CC1C3)N1CCC2(CC1)CNc1ccc(F)cc12 (stereo not drawn) [Example 21, 2-Adamantyl 5-fluorospiro[indoline-3,4′-piperidine]-1′-carboxylate]
< 50 nM	–	Cc1ccc2c(c1)C1(CCN(C(=O)OC3C4CC5CC(C4)CC3C5)CC1)CN2 (stereo not drawn) [Example 22, 2-Adamantyl 5-methylspiro[indoline-3,4′-piperidine]-1′-carboxylate]
< 50 nM	< 50 nM	CC(=O)N1CC2(CCN(C(=O)OC3C4CC5CC(C4)CC3C5)CC2)c2ccccc21 (stereo not drawn) [Example 23, 2-Adamantyl 1-acetylspiro[indoline-3,4′-piperidine]-1′-carboxylate]
< 50 nM	–	O=C(O)CC1CC2(CCN(C(=O)OC3C4CC5CC(C4)CC3C5)CC2)c2ccccc21 (stereo not drawn) [Example 25, 2-(1′-((2-Adamantyloxy)carbonyl)-2,3-dihydrospiro[indene-1,4′-piperidine]-3-yl)acetic acid]
< 50 nM	–	CC(C)(C)OC(=O)N1Cc2ccccc2C2(CCN(C(=O)NC3C4CC5CC(C4)CC3C5)CC2)C1 (stereo not drawn) [Example 29, Tert-butyl 1′-((2-adamantyl)carbamoyl)-1H-spiro[isoquinoline-4,4′-piperidine]-2(3H)-carboxylate]
< 50 nM	< 50 nM	O=C(NC1C2CC3CC(C2)CC1C3)N1CCC2(CC1)CNCc1ccccc12 (stereo not drawn) [Example 30, N-(2-Adamantyl)-2,3-dihydro-1H-spiro[isoquinoline-4,4′-piperidine]-1′-carboxamide]
< 50 nM	< 50 nM	CC(=O)N1Cc2ccccc2C2(CCN(C(=O)NC3C4CC5CC(C4)CC3C5)CC2)C1 (stereo not drawn) [Example 31, 2-Acetyl-N-(2-adamantyl)-2,3-dihydro-1H-spiro[isoquinoline-4,4′-piperidine]-1′-carboxamide]
< 50 nM	< 50 nM	O=C(OC1C2CC3CC(C2)CC1C3)N1CCC2(CC1)OCc1ccccc12 (stereo not drawn) [Example 84, 2-Adamantyl 3H-spiro[isobenzofuran-1,4′-piperidine]-1′-carboxylate]
50 to 1000 nM	< 50 nM	O=C(O)CCCC(=O)N1Cc2ccccc2C2(CCN(C(=O)NC3C4CC5CC(C4)CC3C5)CC2)C1 (stereo not drawn) [Example 95, 5-(1′(2-Adamantylcarbamoyl)-1H-spiro[isoquinoline-4,4′-piperidine]-2(3H)-yl)-5-oxopentanoic acid]
50 to 1000 nM	–	CC(C)(C)OC(=O)N1CC2(CCN(C(=O)OC3C4CC5CC(C4)CC3C5)CC2)c2cc(F)ccc21 (stereo not drawn) [Example 129, 1-Tert-butyl 1′-(2-adamantyl) 5-fluorospiro[indoline-3,4′-piperidine]-1,1′-dicarboxylate]
50 to 1000 nM	–	Cc1ccc2c(c1)C1(CCN(C(=O)OC3C4CC5CC(C4)CC3C5)CC1)CN2C(=O)OC(C)(C)C (stereo not drawn) [Example 130, 1-Tert-butyl 1′-(2-adamantyl) 5-methylspiro[indoline-3,4′-piperidine]-1,1′-dicarboxylate]

Molecule	IC50 (human 11β-HSD1 [1])	IC50 (human 11β-HSD1 [2])
CC(C)(C)OC(=O)N1CC2(CCN(C(=O)OC3C4CC5CC(C4)CC3C5)CC2)c2ccccc21 (stereo not drawn) [Example 128, 1-Tert-butyl 1′-(2-adamantyl)spiro[indoline-3,4′-piperidine]-1,1′-dicarboxylate]	50 to 1000 nM	–
(±)-2-(1′-(Cyclohexylcarbamoyl)spiro[chroman-2,4′-piperidine]-4-yl)acetic acid [Example 14]	50 to 1000 nM	–
(±)-Ethyl 1′-(cyclohexylcarbamoyl)-2,3-dihydrospiro[indene-1,4′-piperidine]-3-carboxylate [Example 16]	< 50 nM	–
(±)-Ethyl 1′-(cyclohexylcarbamoyl)spiro[chroman-2,4′-piperidine]-4-carboxylate [Example 17]	50 to 1000 nM	–
